From patent US20190008440A1, “Method and device to investigate or treat painful neuropathy” (priority 2017, published 2019)

Key:
[1] = test system: C fibers; assay: Laser threshold pulse duration for hot pain (stimulation of C fibers), hairy skin of left hand; format: in vivo, human
Protocol: Subjects: A chronic pain patient with hypersensitivity and a healthy volunteer were tested. Both subjects gave informed consent and the experiments were approved by the local institutional review board. The hairy skin of left hand was used for both volunteers. In preparing the subjects testing, they were asked to respond orally immediately after they perceived any threshold sensation and/or to interrupt lasing pulse by pressing STOP button. They then described the level and type of evoked sensation, location of sensation, how long the sensation lasted, whether the sensation was single (monomodal) sensation or if there were more than one evoked sensations by a single stimulation. Afterwards, the threshold pulse was applied 3 times to different areas with interval of {tilde over ( )}3 min or after the previous sensation (pain) had disappeared. The appearance redness was an indication of skin irritation.
Step 1: To test duration of pulse that evoked threshold warmth sensation only, the output power was set to 1.5 W, beam size adjusted to 5 mm. The pulse was applied to the skin. When the volunteer reported warmth (pain) sensation the lasing was stopped. […]
The laser radiation was stopped by volunteer. […] When this button was pushed the command “stop lasing” was activated, duration of applied pulse was measured and it was indicated on the screen of PC connected to the device by RS232 interface. […]

[2] = cited from earlier work
[3] = test system: A delta and C fibers; assay: Skin biopsies processed with PGP 9.5 biomarker, integral fiber density of A delta and C fibers in epidermis and dermis; format: in vivo, human; settings: biopsies 7 days after treatment with 8% capsaicin patch
Excerpt: In 7 days after treatment additional biopsies from laser and capsaicin treated areas together with control were taken and “blindly” processed with PGP 9.5 biomarker to determine the integral fiber density of the A delta and C fibers in epidermis and dermis.

[4] = test system: A delta nociceptors; assay: Laser pin prick pain threshold (A delta fibers) of healthy volunteer after topical capsaicin; format: in vivo, human; settings: beam 1 mm, 20 minutes after topical capsaicin on skin
Excerpt: The following is a description a typical test procedure utilizing the present invention with the application of protocol Example 1 for healthy volunteers and pain patients:
Step 1: Preparing volunteer for test. The volunteers were asked to respond to stimuli after each stimulus was applied, and describing the level and type of evoked sensation, location of sensation, how long the sensation lasts, whether the sensation was single (monomodal) or if more than one sensation were evoked by stimulation.
Step 2: The level of power of laser was adjusted to skin type of volunteer and irradiated spot was selected as close as possible to A-delta receptors.
Collimated beam with diameter 2 mm, within range of power 5.0-10.0 W and pulse duration 100 ms is applied to an investigated area of skin to determine the individual sensitivity and to map the location of A delta nociceptors. The power is increased with step 0.5 W until the first sensation is evoked. After that, the pulse power is fixed and the position of the irradiated spot is scanned (tuned) within an XY frame 5 mm×5 mm to find the location of the nociceptor and pulse power is applied for each new location with spatial steps of around 0.5 mm for fingertips.
The inter-stimulus time was at least 20 sec. The first appeared sensation was rated by the volunteer as barely pricking pain without any other sensations of warmth or hot pain.
After the location of receptors were determined, the summation curve—Power of Pain Threshold vs. Pulse Duration were measured by the following procedure: • 1) Collimated beam was adjusted to 1 mm, • 2) Duration of pulse set up to 50 ms and pulse power was increased from 2 W until volunteer reported about first appeared sensation. • 3) Afterwards, power was increased until volunteer reported that sensation became clearly painful, but decreasing of power of stimulus on 5-10% leads to the disappearance of pain. • 4) Afterward, the power threshold was measured for 50 ms pulse duration was increased by step 50 ms and procedure measurement of threshold was repeated. The increment of power was 0.1 W.
The healthy volunteer was tested with pulse durations from 50 ms to 300 ms and beam size of 1 mm. The volunteer reported what around 200-300 ms, they felt on the same level of power firstly warmth and after that pricking pain but for pulses within range 50-150 ms, only single (monomodal) pricking pain was discerned. The sensations were sharp and disappeared in a few seconds after stimulation. The next stimulus was applied not earlier than 20 sec or after the disappearance of painful sensation of previous stimulus.
The thresholds of pin prick pain of healthy volunteers were measured in 20 minutes after topical analgesic (capsaicin) was applied on skin. The Steps 2, 3 and 4 were repeated.

[5] = test system: C fiber mediated pain; settings: in vivo; cited from earlier work

Structure (SMILES)	threshold pulse duration, hot pain ([1]; power 1.5 W, beam 5 mm, healthy volunteer affected topical capsaicin, stop button, untreated healthy volunteer 1300 ms) [ms]	effect on thresholds of warmth sensation and hot/burning pain ([1]; topical capsaicin)	residual time ([2]; capsaicin solution used to stimulate neurogenic flare)	duration of capsaicin induced flare ([2]; in vivo)	residual time of capsaicin in the skin ([2]; patch application) [h]	fiber density below control [3] [%]	Power of Pain Thresholds of Healthy Volunteer (Capsaicin) ([4]; pulse duration 50 ms, untreated healthy volunteer 9.5 W) [W]	Power of Pain Thresholds of Healthy Volunteer (Capsaicin) ([4]; pulse duration 100 ms, untreated healthy volunteer 4.5 W) [W]	Power of Pain Thresholds of Healthy Volunteer (Capsaicin) ([4]; pulse duration 150 ms, untreated healthy volunteer 3.2 W) [W]	Power of Pain Thresholds of Healthy Volunteer (Capsaicin) ([4]; pulse duration 200 ms, untreated healthy volunteer 2.8 W) [W]	Power of Pain Thresholds of Healthy Volunteer (Capsaicin) ([4]; pulse duration 300 ms, untreated healthy volunteer 2.5 W) [W]	inhibition of C fiber mediated pain vs A delta fiber mediated pain [5]
COc1cc(CNC(=O)CCCC/C=C/C(C)C)ccc1O [capsaicin]	800	decreases the thresholds of warmth sensation and hot/burning pain	over 48 hours	over several hours	48	10 to 20	14.8	7.0	5	4.3	3.9	
CN1CC[C@]23c4c5ccc(O)c4O[C@H]2[C@@H](O)C=C[C@H]3[C@H]1C5 [morphine]												much more effective in inhibiting C fiber mediated pain than A delta fiber mediated pain
